From patent publication US20190070128A1, “USE OF CANNABIDIVARIN IN THE TREATMENT OF AUTISM SPECTRUM DISORDER, ASSOCIATED DISORDERS AND SCHIZOPHRENIA” (GW Research Limited, priority 2016, published 2019)
“Also recorded” adds a separate entry of the source.

Key:
Assay type in all cases: in vivo, mouse
Ube3am-/p+ (AS) mice [1] = assay: audiogenic seizure susceptibility in Angelman syndrome mice; details: for mice experiencing seizures: baseline 100%
Method: (§1) Heterozygous mice with maternal deficiency of Ube3A (Ube3am−/p+) and wild type (Ube3am+/p+) were purchased from The Jackson Laboratory (Jackson code: B6.12957-Ube3a tm1Alb/J) and maintained in a C57BL/6 background.
For the audiogenic seizure tests CBDV was administered at 20, 200 and 400 mg/kg.
Seizure susceptibility: Audiogenic seizures were induced by vigorously scraping scissors across the metal grating of the cage lid which produces a 100 DB high frequency loud noise. This was done for 20 seconds. This test consists of 3 phases. In phase 1 all mice were tested for epilepsy. In phase 2 all mice were injected daily with either vehicle or a drug for 7 or 10 days. In phase 3 mice were tested for epilepsy (one hour after last injection).

Fmr1 KO and WT mice = assay: susceptibility to audiogenic seizures in Fmr1 KO and WT mice (PND21); details: for audiogenic seizures: FXS mice
Method: This trait was evaluated in PND21 mice after acute administration of the compounds or its vehicle, 30 min before starting the procedure. To measure audiogenic seizure sensitivity mice were placed individually into a novel environment, a glass cylinder (40 cm high, 16 cm diameter) and allowed to explore for 1 min. Next, a bell (100 dB) was rung for 30 sec and seizure activity scored according to the following scale: no response, 0; wild running, 1; clonic seizure, 2; tonic seizure, 3; status epilepticus/respiratory arrest/death, 4.
On postnatal day 21 (PND21) WT and Fmr1 KO mice were injected with CBDV (2, 10, 20 or 100 mg/kg) or vehicle, 30 min before exposure to a bell ring (100 dB). Mice exposed to this noise for 30 sec ceased from their normal exploratory behaviour and reacted with gradually to wild-running, clonic seizure, tonic seizure or death. The maximum response was annotated for each mouse as detailed in Table 2 below. A score was calculated according to the severity of the symptoms as explained in the Methods section.

Fmr1 KO mice = assay: novel object recognition task in Fmr1 KO mice; details: for discrimination index level: chronic
Method: Fmr1 KO mice and wild type mice were obtained and housed four per cage in a temperature of 21° C.±1° C. and humidity of 55%±10% controlled environment. Food and water were available ad libitum. All experiments were performed during the light phase of a 12 hour light/dark cycle (08:00 to 20:00). Animals were handled for one week before the start of experiments. All behavioural tests were performed by researchers blind to the different experimental groups.
On day one mice were habituated for 10 minutes to the empty V-maze in which the task was to be performed. On the second day the mice went back to the maze for 10 minutes which contained two identical objects at the end of each corridor in the V-maze.
The following day the mice were placed again in the same maze for a further 10 minutes but one of the familiar objects was replaced for a novel object. The total time spent exploring the novel and familiar object was recorded. A discrimination index was calculated as the difference between the time spent exploring the novel and familiar object divided by the total time exploring the two objects. A high discrimination index (0.3-0.5) is considered to reflect memory retention for the familiar object.
Adult mice (10-15 weeks old) were treated either acutely with one dose of CBDV on […] or were treated once daily with CBDV for 7 consecutive days. Mice were evaluated in the novel object recognition task after the first and sixth day of CBDV administration. Doses of CBDV used were 2, 10, 20, 100 and 200 mg/kg.

MeCP2 KO mice = assay: body weight gain in MeCP2 KO and WT mice
Method: CBDV was administered daily at the dose of 2, 20 and 200 mg/kg i.p. starting from PND 28 and the following signs were scored every other day: hindlimb clasping (indication of motor imbalance), tremor, gait (measure of coordination), breathing, mobility and general condition.
The CBDV was dissolved in ethanol, cremophor and saline (1:1:18).
Starting from PND 28, mice received a daily intraperitoneal injection of CBDV (or vehicle) at the dose of 2, 20 and 200 mg/kg. Animals were then scored every other day to evaluate the effect of CBDV treatment on motor symptoms (hindlimb clasping, gait, mobility) as well as neurological signs and general conditions (breathing abnormalities, tremors and general condition) present in MeCP2 knockout (KO) mice.

Ube3am-/p+ (AS) mice [2] = assay: clasping test in Angelman syndrome mice; details: chronic treatment (30 days), 20 mg/kg i.p., 10 weeks of age, vs AS vehicle
Method: as §1
Drugs were dissolved in 1:1:18 ethanol:cremophor:0.9% saline, for intraperitoneal (i.p.) administration. Drug treatment was performed daily for 35 days. CBDV was administered at 20 mg/kg.
Clasping: The clasping test assesses ataxia in mice. Mice were suspended by the base of the tail and their behaviours were recorded for 30 seconds. The time for which the mice clasped their hind limbs was recorded. The time was then scored as follows: 4, 15-30 s, 3, 10-15 s, 2, 5-10 s, 1, 0-5 s and 0.0 s

[3] = WT, CBDV 2 mg/kg, n = 6, acute (30 min)
[4] = WT, CBDV 10 mg/kg, n = 5, acute (30 min)
[5] = WT, CBDV 20 mg/kg, n = 6, acute (30 min)
[6] = WT, CBDV 100 mg/kg, n = 6, acute (30 min)

Compound: C=C(C)[C@@H]1CCC(C)=C[C@H]1c1c(O)cc(CCC)cc1O [CBDV, Cannabidivarin]
- seizure susceptibility (Ube3am-/p+ (AS) mice [1]; AS mice, 20 mg/kg or 200 mg/kg, 7 or 10 days treatment): no effect
- number of mice with seizures (Ube3am-/p+ (AS) mice [1]; AS mice, 400 mg/kg): statistically significant decrease
- mice experiencing seizures (Ube3am-/p+ (AS) mice [1]; AS mice, 400 mg/kg, after 7 days treatment): 60%
- mice experiencing seizures (Ube3am-/p+ (AS) mice [1]; AS mice, 400 mg/kg, after 10 days treatment): 30%
- reduction of seizure susceptibility (Ube3am-/p+ (AS) mice [1]; Angelman mice, 400 mg/kg, after 10 days treatment): 70%
- audiogenic seizures, maximum response: Clonic seizure (Fmr1 KO and WT mice; 2 mg/kg, 0.5 h): 0
- audiogenic seizures, maximum response: No response (Fmr1 KO and WT mice; 2 mg/kg, 0.5 h): 2
- audiogenic seizures, maximum response: Tonic seizure (Fmr1 KO and WT mice; 2 mg/kg, 0.5 h): 2
- audiogenic seizures, maximum response: Wild running (Fmr1 KO and WT mice; 2 mg/kg, 0.5 h): 1
- audiogenic seizures, maximum response: Clonic seizure (Fmr1 KO and WT mice; 10 mg/kg, 0.5 h): 0
- audiogenic seizures, maximum response: No response (Fmr1 KO and WT mice; 10 mg/kg, 0.5 h): 0
- audiogenic seizures, maximum response: Tonic seizure (Fmr1 KO and WT mice; 10 mg/kg, 0.5 h): 2
- audiogenic seizures, maximum response: Wild running (Fmr1 KO and WT mice; 10 mg/kg, 0.5 h): 3
- audiogenic seizures, maximum response: Clonic seizure (Fmr1 KO and WT mice; 20 mg/kg, 0.5 h): 0
- audiogenic seizures, maximum response: No response (Fmr1 KO and WT mice; 20 mg/kg, 0.5 h): 2
- audiogenic seizures, maximum response: Tonic seizure (Fmr1 KO and WT mice; 20 mg/kg, 0.5 h): 2
- audiogenic seizures, maximum response: Wild running (Fmr1 KO and WT mice; 20 mg/kg, 0.5 h): 1
- audiogenic seizures, maximum response: Clonic seizure (Fmr1 KO and WT mice; 100 mg/kg, 0.5 h): 0
- audiogenic seizures, maximum response: No response (Fmr1 KO and WT mice; 100 mg/kg, 0.5 h): 5
- audiogenic seizures, maximum response: Tonic seizure (Fmr1 KO and WT mice; 100 mg/kg, 0.5 h): 0
- audiogenic seizures, maximum response: Wild running (Fmr1 KO and WT mice; 100 mg/kg, 0.5 h): 0
- audiogenic seizures, maximum response: Death (Fmr1 KO and WT mice; FXS (Fmr1 KO), CBDV 2 mg/kg, n = 5, acute (30 min)): 0
- audiogenic seizures, maximum response: Death (Fmr1 KO and WT mice; FXS (Fmr1 KO), CBDV 10 mg/kg, n = 5, acute (30 min)): 0
- audiogenic seizures, maximum response: Death (Fmr1 KO and WT mice; FXS (Fmr1 KO), CBDV 20 mg/kg, n = 5, acute (30 min)): 0
- audiogenic seizures, maximum response: Death (Fmr1 KO and WT mice; FXS (Fmr1 KO), CBDV 100 mg/kg, n = 5, acute (30 min)): 0
- audiogenic seizures (Fmr1 KO and WT mice; 100 mg/kg acute, 100 mg/kg): remained seizure free; also recorded: completely eliminate the seizures
- audiogenic seizures (Fmr1 KO and WT mice; lower doses): seizures of varying severity
- audiogenic seizures, maximum response: Clonic seizure (Fmr1 KO and WT mice; [3]): 0
- audiogenic seizures, maximum response: Death (Fmr1 KO and WT mice; [3]): 0
- audiogenic seizures, maximum response: No response (Fmr1 KO and WT mice; [3]): 6
- audiogenic seizures, maximum response: Tonic seizure (Fmr1 KO and WT mice; [3]): 0
- audiogenic seizures, maximum response: Wild running (Fmr1 KO and WT mice; [3]): 0
- audiogenic seizures, maximum response: Clonic seizure (Fmr1 KO and WT mice; [4]): 0
- audiogenic seizures, maximum response: Death (Fmr1 KO and WT mice; [4]): 0
- audiogenic seizures, maximum response: No response (Fmr1 KO and WT mice; [4]): 5
- audiogenic seizures, maximum response: Tonic seizure (Fmr1 KO and WT mice; [4]): 0
- audiogenic seizures, maximum response: Wild running (Fmr1 KO and WT mice; [4]): 0
- audiogenic seizures, maximum response: Clonic seizure (Fmr1 KO and WT mice; [5]): 0
- audiogenic seizures, maximum response: Death (Fmr1 KO and WT mice; [5]): 0
- audiogenic seizures, maximum response: No response (Fmr1 KO and WT mice; [5]): 5
- audiogenic seizures, maximum response: Tonic seizure (Fmr1 KO and WT mice; [5]): 0
- audiogenic seizures, maximum response: Wild running (Fmr1 KO and WT mice; [5]): 1
- audiogenic seizures, maximum response: Clonic seizure (Fmr1 KO and WT mice; [6]): 0
- audiogenic seizures, maximum response: Death (Fmr1 KO and WT mice; [6]): 0
- audiogenic seizures, maximum response: No response (Fmr1 KO and WT mice; [6]): 6
- audiogenic seizures, maximum response: Tonic seizure (Fmr1 KO and WT mice; [6]): 0
- audiogenic seizures, maximum response: Wild running (Fmr1 KO and WT mice; [6]): 0
- increase of discrimination index over vehicle treated mice (Fmr1 KO mice; acute treatment, 2 mg/kg): not significant
- discrimination index (Fmr1 KO mice; acute treatment, any of the doses): no effect
- discrimination index over vehicle treated knockout mice (Fmr1 KO mice; chronic (once daily for 7 days), 20 and 100 mg/kg): statistically significant increase
- discrimination index level (Fmr1 KO mice; 20 mg/kg): over 0.3
- discrimination index level (Fmr1 KO mice; 100 mg/kg): over 0.3
- body weight (area under the curve) (MeCP2 KO mice; MeCP2 KO mice): significantly rescued
- reduction in body weight (MeCP2 KO mice; MeCP2 KO mice, 2, 20 and 200 mg/kg i.p. daily, PND 28-66): partially prevent
- body weight (area under the curve) (MeCP2 KO mice; WT controls): without affecting
- clasping duration (Ube3am-/p+ (AS) mice [2]): significantly reduced
